{"source": "patent US20020155540A1", "about": "“Method to reduce transcriptional interference between tandem genes” (priority 2001, published 2002)", "system": "ecdysone receptor (EcR) based, chemically inducible gene expression system", "assay": "Ecdysone receptor-based gene induction: upstream LUC activation and downstream RLUC expression in protoplasts", "assay_type": "cell-based, tobacco", "experimental": "Protoplasts were prepared from actively growing tobacco BY-2 suspension cells (Japan Tobacco, Japan) and cultured essentially as described in Kikkawa et al. (9). One ml of protoplasts (5×10^5 to 1×10^6 cells) was mixed with plasmid DNA and electroporated at 0.56 K Volts for 80 μ seconds using an electroporation system with petripulser electrode (BTX). Equimolar plasmid DNA was added to transfections and the amount of DNA added varied from 23 to 30 μg depending on the plasmid size. To standardize the luciferase enzyme assays, 2 μg of the RLUC plasmid DNA were also added to each transfection as an internal control. Following the electroporation, protoplasts were diluted with 1 ml of 2×protoplast culture medium, aliquoted as two 1 ml cultures and incubated at 27° C. for 16-17 h. Each plasmid construct was tested in 5 to 7 independent transfection experiments.\nProtoplast cultures were lysed by adding 250 μl of 5× passive lysis buffer (Promega) and shaking at room temperature for 10 minutes. […] The assay was performed with a luminometer plate reader (Dynex). The luciferase enzyme activities were measured and expressed as ratios of luciferase to Renilla luciferase activities in relative light units.\nInduction of the Luc gene expression cassette was controlled by the addition of EcR ligand methoxyfenozide.\nIt contains a constitutively expressed chimeric GVE receptor gene (CsVMV promoter—sequences coding for GAL4 DNA binding domain, VP16 activation domain, and EcR ligand binding domain—NOS terminator) and an inducible promoter (five copies of GAL4 response element+minimal 35S promoter) to drive LUC gene expression (FIG. 1D). When the ligand methoxyfenozide (4) is applied to protoplasts, it binds to and activates the chimeric receptor. The activated receptor then induces LUC gene expression. This system was used to activate the upstream LUC gene, and the influence of LUC activation on the downstream constitutive RLUC gene expression was then measured.", "data": [{"smiles": "COc1cccc(C(=O)NN(C(=O)c2cc(C)cc(C)c2)C(C)(C)C)c1C", "note": "[methoxyfenozide]", "values": [{"measurement": "Luc Induced", "setting": "10 μM methoxyfenozide", "result": "25,428 RLU"}, {"measurement": "RLuc Induced", "setting": "10 μM methoxyfenozide", "result": 8832, "unit": "RLU"}, {"measurement": "reduction of downstream, constitutively expressed RLuc expression", "setting": "after activation of upstream Luc gene with ligand", "result": 71, "unit": "%"}]}]}
